Consider two compounds from patent US9079895B2, “Morpholino compounds, uses and methods” (University of Dundee, priority 2012, dated 2015).

Values joined by “and” are separate entries in the source; they are usually repeats but may differ in a detail not shown here. Identical values can stand only once.

Assay [1] deals with 5HT2a receptor (Homo sapiens (Human), UniProt P28223). Nature of the assay: Secondary radioligand binding assay, 5HT2a. The conditions noted are these: average of at least two experiments.
For assay [2], the target named is 5HT3 receptor (Homo sapiens (Human), UniProt P46098). Nature of the assay: Secondary radioligand binding assay, 5HT3.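 Also: radioligand competition binding on membranes from transfected cell lines, 1.5 h incubation at room temperature, filter-retained radioactivity measured by liquid scintillation counting.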 Details: key: “—” indicates that a binding interaction was not detected. The conditions noted are these: average of at least two experiments.
Sequence of 5HT3 receptor (P46098 24-478): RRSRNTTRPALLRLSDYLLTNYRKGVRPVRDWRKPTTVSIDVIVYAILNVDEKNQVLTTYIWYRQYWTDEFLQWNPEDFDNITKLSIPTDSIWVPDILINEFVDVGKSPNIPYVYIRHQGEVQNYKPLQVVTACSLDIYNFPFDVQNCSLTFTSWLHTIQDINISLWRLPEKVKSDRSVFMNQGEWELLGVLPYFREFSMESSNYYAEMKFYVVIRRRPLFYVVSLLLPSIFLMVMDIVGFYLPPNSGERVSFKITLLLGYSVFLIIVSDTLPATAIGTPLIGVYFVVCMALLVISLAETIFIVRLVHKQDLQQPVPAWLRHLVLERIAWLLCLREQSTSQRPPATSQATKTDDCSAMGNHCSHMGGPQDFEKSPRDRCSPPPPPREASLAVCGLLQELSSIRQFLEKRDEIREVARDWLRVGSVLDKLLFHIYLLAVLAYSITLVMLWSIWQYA
Description: Secondary Radioligand Binding Assays
(§2) Assay Buffer: Standard Binding Buffer (50 mM Tris-HCl, 10 mM MgCl2, 1 mM EDTA, pH 7.4)
(§3) Membrane Fraction Source: Transiently or stably transfected cell lines (e.g., HEK293, COS, CHO, NIH3T3)
(§4) Radioligand is diluted to five times the assay concentration (see Table 18) in Standard Binding Buffer. Typically, the assay concentration of radioligand is a value between one half the KD and the KD of a particular radioligand at its target. 50 μl aliquots of radioligand are dispensed into the wells of a 96-well plate containing 100 μl of Standard Binding Buffer. Then, duplicate 50 μl aliquots of the test and reference compound dilutions are added.
(§5) The 250 μl reactions are incubated at room temperature and shielded from light (to prevent photolysis of light-sensitive ligands) for 1.5 hours, then harvested by rapid filtration onto Whatman GF/B glass fiber filters pre-soaked with 0.3% polyethyleneimine using a 96-well Brandel harverster. Four rapid 500 μl washes are performed with chilled Standard Binding Buffer to reduce non-specific binding. Filters are placed in 6 ml scintillation tubes and allowed to dry overnight. The next day, 4 ml of EcoScint scintillation cocktail (National Diagnostics) are added to each tube. The tubes are capped, labeled, and counted by liquid scintillation counting. […] The filter mats are dried, then scintillant is melted onto the filters and the radioactivity retained on the filters is counted in a Microbeta scintillation counter.
(§6) Raw data (dpm) representing total radioligand binding (i.e. specific+non-specific binding) are plotted as a function of the logarithm of the molar concentration of the competitor (i.e. test or reference compound).
The target of assay [3] is Alpha1B adrenergic receptor (Homo sapiens (Human), UniProt P35368). Nature of the assay: Secondary radioligand binding assay, Alpha1B. The arrangement: key to Ki Alpha1B: “—” indicates that a binding interaction was not detected. The conditions noted are these: average of at least two experiments. In a few lines:
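Competition binding on membranes from transfected cell lines in 20 mM Tris-HCl, 145 mM NaCl, pH 7.4, with radioligand and eleven test-compound dilutions. Bound ligand collected on filters, washed four times with chilled distilled water, and counted; total binding (dpm) plotted against log competitor concentration.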

Assay [4] has as its target dopamine D5 receptor (Homo sapiens (Human), UniProt P21918). Nature of the assay: Secondary radioligand binding assay, D5. The arrangement: key to Ki D5: “—” indicates that a binding interaction was not detected. The conditions noted are these: average of at least two experiments. The procedure, abridged:
(§1)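 Competition binding on membranes from transfected cell lines (e.g. HEK293, COS, CHO, NIH3T3) in 50 mM HEPES, 50 mM NaCl, 5 mM MgCl2, 0.5 mM EDTA, pH 7.4.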

The target of assay [5] is dopamine D1 receptor (Homo sapiens (Human), UniProt P21728). Kind of assay: Secondary radioligand binding assay, D1. The conditions noted are these: average of at least two experiments. The procedure, abridged: as §1
Sequence of dopamine D1 receptor (P21728 whole entry): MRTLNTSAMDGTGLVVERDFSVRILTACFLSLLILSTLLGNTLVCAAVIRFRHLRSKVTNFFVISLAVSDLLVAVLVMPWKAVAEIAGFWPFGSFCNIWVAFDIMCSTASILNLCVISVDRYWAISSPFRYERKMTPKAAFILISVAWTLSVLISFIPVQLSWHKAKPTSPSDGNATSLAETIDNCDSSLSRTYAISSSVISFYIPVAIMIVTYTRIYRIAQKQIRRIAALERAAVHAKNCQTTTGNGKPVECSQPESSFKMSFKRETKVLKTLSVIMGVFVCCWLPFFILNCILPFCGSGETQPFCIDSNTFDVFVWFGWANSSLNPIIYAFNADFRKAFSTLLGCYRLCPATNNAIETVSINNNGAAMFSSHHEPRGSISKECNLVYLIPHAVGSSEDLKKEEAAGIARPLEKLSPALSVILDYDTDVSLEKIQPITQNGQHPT
For assay [6], the target named is 5HT2c receptor (Homo sapiens (Human), UniProt P28335). Kind of assay: Secondary radioligand binding assay, 5HT2c. The conditions noted are these: average of at least two experiments.
Sequence of 5HT2c receptor (P28335 33-458): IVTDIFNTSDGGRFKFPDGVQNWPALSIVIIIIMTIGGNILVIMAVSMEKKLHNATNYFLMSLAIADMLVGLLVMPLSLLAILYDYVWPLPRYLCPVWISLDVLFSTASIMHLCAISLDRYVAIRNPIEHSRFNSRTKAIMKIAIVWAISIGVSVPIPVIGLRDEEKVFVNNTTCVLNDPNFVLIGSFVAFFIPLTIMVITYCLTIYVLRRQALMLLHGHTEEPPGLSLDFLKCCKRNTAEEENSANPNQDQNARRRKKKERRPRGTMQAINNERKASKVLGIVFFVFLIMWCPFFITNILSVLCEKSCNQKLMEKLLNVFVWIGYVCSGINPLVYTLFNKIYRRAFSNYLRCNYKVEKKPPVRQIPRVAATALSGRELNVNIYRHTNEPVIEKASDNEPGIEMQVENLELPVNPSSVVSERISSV
Description: Secondary Radioligand Binding Assays
as §2, §3, §4, §5, §6
Assay [7] addresses 5HT6 receptor (Homo sapiens (Human), UniProt P50406). Nature of the assay: Secondary radioligand binding assay, 5HT6.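 Also: competition displacement of radioligand from membranes of transfected cell lines expressing the receptor, 1.5 h at room temperature, bound radioactivity counted by scintillation after filtration.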 Details: key: “—” indicates that a binding interaction was not detected. The conditions noted are these: average of at least two experiments.
Description: as §2, §3, §4, §5, §6
In assay [8] the target is 5HT1e receptor (Homo sapiens (Human), UniProt P28566). Nature of the assay: Secondary radioligand binding assay, 5HT1e.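 Also: competition binding against a radioligand on membranes from transfected cell lines, 1.5 h at room temperature, bound radioactivity counted by liquid scintillation after filtration.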 The arrangement: key: “—” indicates that a binding interaction was not detected. The conditions noted are these: average of at least two experiments.
Sequence of 5HT1e receptor (P28566 whole entry): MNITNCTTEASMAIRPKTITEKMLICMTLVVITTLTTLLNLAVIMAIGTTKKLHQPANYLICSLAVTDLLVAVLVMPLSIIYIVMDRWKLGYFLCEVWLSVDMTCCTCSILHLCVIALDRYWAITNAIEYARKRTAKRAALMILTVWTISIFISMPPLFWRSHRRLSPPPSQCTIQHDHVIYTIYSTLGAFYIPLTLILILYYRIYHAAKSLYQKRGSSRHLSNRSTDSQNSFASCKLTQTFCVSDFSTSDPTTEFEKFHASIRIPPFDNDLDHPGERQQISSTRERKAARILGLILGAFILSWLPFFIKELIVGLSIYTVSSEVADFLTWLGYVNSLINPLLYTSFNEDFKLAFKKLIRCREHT
Description: as §2, §3, §4, §5, §6
Assay [9] concerns the target 5HT1a receptor (Homo sapiens (Human), UniProt P08908). Kind of assay: Secondary radioligand binding assay, 5HT1a. The conditions noted are these: average of at least two experiments.
Description: Secondary Radioligand Binding Assays
as §2, §3, §4, §5, §6
The target in assay [10] is 5HT7 receptor (Homo sapiens (Human), UniProt P34969). Nature of the assay: Secondary radioligand binding assay, 5HT7.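 Also: competition of test compound with radioligand for binding to membranes from transfected cell lines, 1.5 h incubation at room temperature, filter-bound radioactivity read by liquid scintillation.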 Details: key to Ki 5HT7: “—” indicates that a binding interaction was not detected. The conditions noted are these: average of at least two experiments.
Sequence of 5HT7 receptor (P34969 whole entry): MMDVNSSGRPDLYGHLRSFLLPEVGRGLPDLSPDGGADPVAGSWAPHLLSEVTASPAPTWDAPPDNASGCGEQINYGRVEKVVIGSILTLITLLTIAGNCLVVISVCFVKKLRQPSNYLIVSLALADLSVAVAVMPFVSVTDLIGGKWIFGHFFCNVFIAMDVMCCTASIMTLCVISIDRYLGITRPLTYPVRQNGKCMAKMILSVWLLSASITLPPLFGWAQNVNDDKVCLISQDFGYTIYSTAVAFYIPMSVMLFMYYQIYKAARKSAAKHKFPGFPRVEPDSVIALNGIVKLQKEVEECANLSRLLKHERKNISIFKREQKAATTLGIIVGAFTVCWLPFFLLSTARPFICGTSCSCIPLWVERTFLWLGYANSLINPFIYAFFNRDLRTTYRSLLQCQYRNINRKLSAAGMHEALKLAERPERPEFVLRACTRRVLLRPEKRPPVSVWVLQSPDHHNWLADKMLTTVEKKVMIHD
Description: as §2, §3, §4, §5, §6
Assay [11] concerns the target 5HT1d receptor (Homo sapiens (Human), UniProt P28221). Kind of assay: Secondary radioligand binding assay, 5HT1d.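 Also: competition binding against a radioligand on membranes from transfected cell lines, 1.5 h at room temperature, filter-retained radioactivity counted by liquid scintillation, total binding plotted versus log competitor concentration.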 The conditions noted are these: average of at least two experiments.
Description: as §2, §3, §4, §5, §6
The target in assay [12] is dopamine D4 receptor (Homo sapiens (Human), UniProt P21917). Nature of the assay: Secondary radioligand binding assay, D4. The conditions noted are these: receptor binding; average of at least two experiments; read-out: Ki D4. In a few lines:
as §1

Assay [13] deals with 5HT2b receptor (Homo sapiens (Human), UniProt P41595). Kind of assay: Secondary radioligand binding assay, 5HT2b.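 Also: competition binding against a radioligand on membranes from transfected cell lines, 1.5 h incubation at room temperature, filter-retained radioactivity counted by liquid scintillation.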 The conditions noted are these: average of at least two experiments.
Description: Secondary Radioligand Binding Assays
as §2, §3, §4, §5, §6

Sequence of dopamine D4 receptor (P21917 whole entry, species assumed): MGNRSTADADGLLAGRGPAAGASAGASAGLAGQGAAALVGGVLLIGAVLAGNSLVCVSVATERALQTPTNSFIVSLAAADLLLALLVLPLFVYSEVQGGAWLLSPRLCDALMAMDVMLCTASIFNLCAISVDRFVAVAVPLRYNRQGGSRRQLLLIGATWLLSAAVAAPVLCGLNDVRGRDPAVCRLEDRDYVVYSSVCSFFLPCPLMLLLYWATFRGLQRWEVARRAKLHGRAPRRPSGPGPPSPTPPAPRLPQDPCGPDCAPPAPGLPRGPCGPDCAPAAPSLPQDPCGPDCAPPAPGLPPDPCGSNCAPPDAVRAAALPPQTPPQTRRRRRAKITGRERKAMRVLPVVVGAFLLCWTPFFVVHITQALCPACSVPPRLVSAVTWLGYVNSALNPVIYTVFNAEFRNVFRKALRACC
Sequence of dopamine D5 receptor (P21918 whole entry): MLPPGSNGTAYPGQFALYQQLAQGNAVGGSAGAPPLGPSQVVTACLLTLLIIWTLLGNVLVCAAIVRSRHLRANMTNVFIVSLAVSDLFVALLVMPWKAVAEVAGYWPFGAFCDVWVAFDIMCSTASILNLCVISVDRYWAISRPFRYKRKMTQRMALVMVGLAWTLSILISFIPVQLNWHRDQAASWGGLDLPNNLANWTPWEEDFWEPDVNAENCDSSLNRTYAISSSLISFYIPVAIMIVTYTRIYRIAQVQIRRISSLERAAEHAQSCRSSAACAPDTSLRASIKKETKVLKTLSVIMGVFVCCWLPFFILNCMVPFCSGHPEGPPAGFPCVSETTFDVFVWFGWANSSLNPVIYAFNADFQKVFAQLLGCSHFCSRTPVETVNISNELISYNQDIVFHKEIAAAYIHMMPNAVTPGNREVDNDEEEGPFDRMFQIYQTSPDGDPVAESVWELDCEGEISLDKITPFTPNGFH
Sequence of 5HT6 receptor (P50406 whole entry): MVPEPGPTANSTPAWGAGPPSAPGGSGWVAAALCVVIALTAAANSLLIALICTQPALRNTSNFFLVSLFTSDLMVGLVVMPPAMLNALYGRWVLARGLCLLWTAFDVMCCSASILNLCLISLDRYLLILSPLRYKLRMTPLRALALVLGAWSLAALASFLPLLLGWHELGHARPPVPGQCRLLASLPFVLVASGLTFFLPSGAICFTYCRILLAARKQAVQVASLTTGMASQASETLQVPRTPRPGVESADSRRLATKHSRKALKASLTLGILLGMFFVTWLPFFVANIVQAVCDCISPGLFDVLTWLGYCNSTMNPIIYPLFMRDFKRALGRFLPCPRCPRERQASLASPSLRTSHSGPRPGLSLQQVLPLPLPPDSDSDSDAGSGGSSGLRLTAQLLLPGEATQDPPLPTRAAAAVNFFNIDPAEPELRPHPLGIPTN
Sequence of 5HT1d receptor (P28221 whole entry): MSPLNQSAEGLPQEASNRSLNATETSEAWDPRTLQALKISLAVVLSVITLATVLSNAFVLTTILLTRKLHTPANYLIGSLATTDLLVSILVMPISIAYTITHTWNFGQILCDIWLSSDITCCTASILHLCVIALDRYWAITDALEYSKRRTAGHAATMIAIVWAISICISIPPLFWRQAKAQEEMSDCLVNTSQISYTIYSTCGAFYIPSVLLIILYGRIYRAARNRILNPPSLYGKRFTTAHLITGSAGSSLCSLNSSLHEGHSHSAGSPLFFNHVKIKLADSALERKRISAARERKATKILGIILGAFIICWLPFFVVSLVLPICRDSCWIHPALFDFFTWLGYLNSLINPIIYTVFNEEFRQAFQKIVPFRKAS
Sequence of 5HT1a receptor (P08908 whole entry): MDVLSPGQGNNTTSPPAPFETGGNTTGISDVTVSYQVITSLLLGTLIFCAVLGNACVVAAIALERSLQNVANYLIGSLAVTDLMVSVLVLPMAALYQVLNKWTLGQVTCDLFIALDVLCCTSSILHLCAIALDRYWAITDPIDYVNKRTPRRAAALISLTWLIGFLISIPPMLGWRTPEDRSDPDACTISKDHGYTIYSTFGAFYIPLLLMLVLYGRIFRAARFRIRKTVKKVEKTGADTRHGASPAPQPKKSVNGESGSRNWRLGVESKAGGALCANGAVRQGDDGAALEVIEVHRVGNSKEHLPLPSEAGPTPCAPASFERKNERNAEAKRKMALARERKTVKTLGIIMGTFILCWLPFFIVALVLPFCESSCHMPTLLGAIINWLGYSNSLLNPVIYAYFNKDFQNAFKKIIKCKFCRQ
Sequence of Alpha1B adrenergic receptor (P35368 whole entry): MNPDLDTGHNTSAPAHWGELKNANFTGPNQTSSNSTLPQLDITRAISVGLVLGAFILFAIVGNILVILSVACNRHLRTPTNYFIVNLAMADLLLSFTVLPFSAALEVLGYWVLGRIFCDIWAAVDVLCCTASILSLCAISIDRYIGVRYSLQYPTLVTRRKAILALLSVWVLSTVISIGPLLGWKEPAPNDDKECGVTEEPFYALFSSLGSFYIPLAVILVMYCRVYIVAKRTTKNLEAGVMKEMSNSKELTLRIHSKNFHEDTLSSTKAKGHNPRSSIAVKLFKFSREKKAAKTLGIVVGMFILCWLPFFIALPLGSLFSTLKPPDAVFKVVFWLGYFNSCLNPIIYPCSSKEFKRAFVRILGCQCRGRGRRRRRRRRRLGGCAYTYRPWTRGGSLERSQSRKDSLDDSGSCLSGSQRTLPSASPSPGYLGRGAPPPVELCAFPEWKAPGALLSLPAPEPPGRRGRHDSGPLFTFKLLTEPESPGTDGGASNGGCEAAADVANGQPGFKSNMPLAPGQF

The term Ki denotes the equilibrium dissociation constant of an inhibitor or competing ligand from its target. Take `COc1cccc(OC[C@@H]2CN(CCN3CCc4ccccc43)CCO2)c1` [Compound 25s, (S)-4-(2-(Indolin-1-yl)ethyl)-2-((3-methoxyphenoxy)methyl)morpholine]: the Ki stood at 1400 nM in [1]; 8530 nM in assay [4]; 8370 nM in assay [5]; 3760 nM in [6]; 174 nM in assay [9]; 1980 nM in assay [11]. For the same compound, the “Ki 5HT3” value in assay [2] is on record as “—”. In assay [3], the “Ki Alpha1B” value is “—”. Besides, the “Ki 5HT6” value in assay [7] is on record as “—”. Further, in assay [8], the “Ki 5HT1e” value is listed as “—”. Besides, the “Ki 5HT7” value in assay [10] was “—”.
Turning to `c1ccc(OC[C@@H]2CN(CCN3CCc4ccccc43)CCO2)cc1` [Compound 19s, (S)-4-(2-(Indolin-1-yl)ethyl)-2-(phenoxymethyl)morpholine], the Ki in assay [1] was 817 nM; in assay [3] it was 7210 nM; in [12], < 1000 nM and 132 nM; in assay [5] it was 1350 nM; in assay [6], 6740 nM; in assay [9] it was 0.6 nM. Moreover, the results for the Ki in assay [10], in assay [13] and in assay [11] were 468 nM, 1440 nM and 590 nM, respectively. Further, in assay [2], the “Ki 5HT3” value is listed as “—”. For the same compound, the “Ki D5” value in [4] is listed as “—”. For the same compound, the “Ki 5HT6” value in assay [7] is “—”. Also, the “Ki 5HT1e” value in [8] is “—”.
